Target: human CXCR2 (Homo sapiens (Human), UniProt P25025)
Assay: CXCR2 inhibition: calcium fluorescence assay (FLIPR)
Assay type: cell-based
Details: chemokine IL-8; CHO-K1 cells stably transfected with human CXCR2 and Gα16; Fluo-4 calcium response
From the text: Determination of CXCR2 Inhibition: Calcium Fluorescence Assay (FLIPR)
The assay is based on the detection of intracellular calcium changes detected by the selective, calcium-chelating dye, Fluo-4 (Molecular Probes). A large fluorescence intensity increase is observed upon calcium association with Fluo-4. The dye is delivered to the cell interior using an acetoxymethylester form of Fluo-4, where the intracellular esterase activity results in the charged species being released and trapped within the cytoplasm of the cell. […] By co-expressing the CXCR2 receptor and the promiscuous Gα16 protein, activation of this chemokine receptor is directed into this phospholipase C cascade resulting in intracellular calcium mobilization.
The CHO-K1 cells stably transfected with human CXCR2 and the promiscuous Gα16 protein were maintained in a log phase of growth at 37° C. and 5% CO2 in the following media: Iscove's, 10% FBS, 1× Penicillin-Streptomycin, 400 μg/mL G418 and 350 μg/mL Zeocin. Approximately 24-48 hours prior to the assay, 20,000-30,000 cells/well were plated onto a 96-well black/clear bottomed assay plate (Becton Dickinson) with a well volume of 180 μl. […] The IC50 value of a compound was determined by calculation of % inhibition of total calcium response to the chemokine.

human CXCR2, sequence (P25025 whole entry): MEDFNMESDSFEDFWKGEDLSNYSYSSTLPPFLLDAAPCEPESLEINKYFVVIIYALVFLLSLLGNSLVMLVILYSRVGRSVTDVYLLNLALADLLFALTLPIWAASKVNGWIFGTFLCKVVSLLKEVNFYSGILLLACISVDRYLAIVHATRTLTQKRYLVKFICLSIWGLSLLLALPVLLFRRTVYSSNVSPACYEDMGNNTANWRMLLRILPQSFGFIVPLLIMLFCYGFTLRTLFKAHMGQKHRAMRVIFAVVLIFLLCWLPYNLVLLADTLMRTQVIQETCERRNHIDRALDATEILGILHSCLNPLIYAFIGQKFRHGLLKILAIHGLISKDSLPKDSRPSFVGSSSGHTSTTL

Structure (SMILES)	IC50
CCC(NC(=O)c1ccc2ccccc2c1OCc1ccc(C(F)(F)F)cc1)(C(=O)O)c1ccccc1 (centres unmarked) [Example 10, 2-Phenyl-2-{[1-(4-trifluoromethyl-benzyloxy)-naphthalene-2-carbonyl]-amino}-butyric acid]	2.2 µM
O=C(NC1(C(=O)O)CCOCC1)c1cc(F)c2ccccc2c1OCc1ccc(SC(F)(F)F)cc1 [Example 12, 4-{[4-Fluoro-1-(4-trifluoromethylsulfanyl-benzyloxy)-naphthalene-2-carbonyl]-amino}-tetrahydro-pyran-4-carboxylic acid]	6 µM

Source: patent publication US8552033B2, “Inhibitors of CXCR2” (SANOFI, priority 2006, dated 2013)
